Measurements taken from patent US20230357253A1, “AGONISTS OF STIMULATOR OF INTERFERON GENES STING” (THE SCRIPPS RESEARCH INSTITUTE, priority 2020, published 2023).

Experiments:
[1] = system: THP-1 Lucia ISG cells; experiment: ISRE-luciferase assay (ISG-LUC activation); format: cell-based; settings: Homo sapiens, THP1-Lucia ISG, 24 hours, luciferase reporter
Outline: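 THP-1 Lucia ISG cells at 5×10^5 cells/ml in 2% FBS medium were treated with test article or DMSO vehicle for 24 h. Secreted luciferase was read by luminescence and normalized to vehicle, reported as RLU.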

[2] = biological target: human STING protein (Homo sapiens (Human), UniProt Q86WV6); experiment: WT STING binding assay (HTRF, competition with labeled 2′3′cGAMP); settings: recombinant 6×His-tagged human STING, three hours at room temperature
Method: WT STING binding assay (Cisbio, Catalog #64BDSTGPEH). […] Upon proximity of the two dyes, the excitation of the donor by the flash lamp on the PHERAstar FSX plate reader triggers a Fluorescence Resonance Energy Transfer (FRET) towards the acceptor, which in turn fluoresces at 665 nm. To assess the ability of the synthetic small molecule STING ligands to bind to human STING, a competitive assay format was applied. A 10-point titration of each of the synthetic ligands in 5 uL were transferred into a 384 well plate, followed by 20 uL of assay buffer containing the 6×His-tagged human STING protein and labeled 2′3′cGAMP ligand and incubated for three hours at room temperature. The raw values obtained from the PHERAstar were used to calculate the reported IC50 values (the signal is inversely proportional to the binding of the synthetic ligand) through curve fitting in Genedata. The percent inhibition was calculated based upon the maximal amount of binding by synthetic compound versus the maximum binding of unlabeled 2′3′ cGAMP which was used as a control in each assay.

human STING protein, sequence (Q86WV6 whole entry): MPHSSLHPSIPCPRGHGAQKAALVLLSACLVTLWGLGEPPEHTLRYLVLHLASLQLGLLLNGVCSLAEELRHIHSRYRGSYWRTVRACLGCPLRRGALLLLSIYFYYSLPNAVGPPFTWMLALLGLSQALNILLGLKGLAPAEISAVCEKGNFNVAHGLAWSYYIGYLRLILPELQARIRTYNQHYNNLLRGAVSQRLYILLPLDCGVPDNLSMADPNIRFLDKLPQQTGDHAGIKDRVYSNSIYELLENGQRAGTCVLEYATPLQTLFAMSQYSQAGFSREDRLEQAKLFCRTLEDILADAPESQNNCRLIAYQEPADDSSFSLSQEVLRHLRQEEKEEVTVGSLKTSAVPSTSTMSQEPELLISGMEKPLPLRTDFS

EC50 [1] [µM] | IC50 [2] [µM] | Compound
0.5 to 5 | 0.01 to 0.1 | O=C(Nc1cc(C[S+]([O-])Cc2cc(NC(=O)c3ccc(-n4ccnc4)nn3)c(C(=O)O)cc2F)c(F)cc1C(=O)O)c1ccc(-n2ccnc2)nn1 [Compound 7, 4,4′-(sulfinylbis(methylene))bis(2-(6-(1H-imidazol-1-yl)pyridazine-3-carboxamido)-5-fluorobenzoic acid)]
0.5 to 5 | 0.1 to 1 | COc1cc(C(=O)O)c(NC(=O)c2ccc(-n3ccnc3)nn2)cc1OCCc1cc(NC(=O)c2ccc3nnnn3n2)c(C(=O)O)cc1Cl [Compound 109]
< 0.05 | 0.1 to 1 | COC(=O)c1cc(F)c(CCOc2cc(NC(=O)c3ccc(-n4ccnc4)nn3)c(C(=O)O)cc2F)cc1NC(=O)c1ccc(-n2ccnc2)nn1 [Compound 140]
0.05 to 0.5 | 0.01 to 0.1 | O=C(Nc1cc(OCCc2cc(NC(=O)c3ccc4nnnn4n3)c(C(=O)O)cc2F)c(F)cc1C(=O)O)c1ccc(-n2ccnc2)nn1 [Compound 116]
0.05 to 0.5 | 0.01 to 0.1 | COc1cc(C(=O)O)c(NC(=O)c2ccc3nnnn3n2)cc1CCCc1ccc(C(=O)O)c(NC(=O)c2ccc(-n3ccnc3)nn2)c1 [Compound 86]
0.5 to 5 | 0.1 to 1 | COc1cc(C(=O)O)c(NC(=O)c2ccc3nnnn3n2)cc1OCCc1cc(NC(=O)c2ccc(-n3ccnc3)nn2)c(C(=O)O)cc1F [Compound 102]
0.05 to 0.5 | 0.01 to 0.1 | O=C(Nc1cc(OCCOc2cc(NC(=O)c3ccc(-n4ccnc4)nn3)c(C(=O)O)cc2F)c(F)cc1C(=O)O)c1ccc(-n2ccnc2)nn1 [Compound 171]
0.05 to 0.5 | 0.1 to 1 | O=C(Nc1cc(OCCCCOc2cc(NC(=O)c3ccc4nnnn4n3)c(C(=O)O)cc2F)c(F)cc1C(=O)O)c1ccc2nnnn2n1 [Compound 12]
0.05 to 0.5 | 0.01 to 0.1 | COc1cc(C(=O)O)c(NC(=O)c2ccc(-n3ccnc3)nn2)cc1CCCc1cc(NC(=O)c2ccc3nnnn3n2)c(C(=O)O)cc1F [Compound 107]
0.05 to 0.5 | 0.01 to 0.1 | O=C(Nc1cc(CCOc2cc(NC(=O)c3ccc4nnnn4n3)c(C(=O)O)cc2Cl)ccc1C(=O)O)c1ccc(-n2ccnc2)nn1 [Compound 104]
0.5 to 5 | 0.01 to 0.1 | O=C(Nc1cc(CCCc2cc(NC(=O)c3ccc4cnnn4n3)c(C(=O)O)cc2F)c(F)cc1C(=O)O)c1ccc(-n2ccnc2)nn1 [Compound 117]
0.5 to 5 | 0.01 to 0.1 | O=C(Nc1cc(OCCCCOc2cc(NC(=O)c3ccc4nnnn4n3)c(C(=O)O)cc2Cl)ccc1C(=O)O)c1ccc(-n2ccnc2)nn1 [Compound 72]
0.5 to 5 | 0.1 to 1 | COC(=O)c1ccc(CCCc2cc(NC(=O)c3ccc4nnnn4n3)c(C(=O)O)cc2F)cc1NC(=O)c1ccc(-n2ccnc2)nn1 [Compound 88]
0.5 to 5 | 0.1 to 1 | COc1cc(C(=O)O)c(NC(=O)c2ccc(-n3ccnc3)nn2)cc1CCOc1cc(NC(=O)c2ccc3nnnn3n2)c(C(=O)O)cc1F [Compound 99]
0.05 to 0.5 | 0.1 to 1 | COc1cc(NC(=O)c2ccc(-n3ccnc3)nn2)c(C(=O)O)cc1CCCc1cc(NC(=O)c2ccc3nnnn3n2)c(C(=O)O)cc1F [Compound 101]
0.05 to 0.5 | 0.01 to 0.1 | NC(=O)c1nnn2nc(C(=O)Nc3cc(CCOc4cc(NC(=O)c5ccc(-n6ccnc6)nn5)c(C(=O)O)cc4F)c(F)cc3C(=O)O)ccc12 [Compound 135]
0.05 to 0.5 | 0.01 to 0.1 | O=C(Nc1cc(CCCc2cc(NC(=O)c3ccc4nnnn4n3)c(C(=O)O)cc2Cl)ccc1C(=O)O)c1ccc(-n2ccnc2)nn1 [Compound 77]
0.5 to 5 | 0.1 to 1 | COc1cc(NC(=O)c2ccc3nnnn3n2)c(C(=O)O)cc1CCCc1ccc(C(=O)O)c(NC(=O)c2ccc(-n3ccnc3)nn2)c1 [Compound 84]
> 5 | 0.1 to 1 | COC(=O)c1ccc(OCCCCOc2cc(NC(=O)c3ccc4nnnn4n3)c(C(=O)O)cc2F)cc1NC(=O)c1ccc(-n2ccnc2)nn1 [Compound 62]
> 5 | 0.1 to 1 | O=C(Nc1cc(OCCCCOc2cc(NC(=O)c3ccc4nnnn4n3)c(C(=O)O)cc2F)c(F)cc1C(=O)O)c1ccc(-n2ccnc2)nn1 [Compound 22]
0.05 to 0.5 | 0.01 to 0.1 | COc1cc(C(=O)O)c(NC(=O)c2ccc(-n3ccnc3)nn2)cc1OCCc1cc(C(=O)O)c(NC(=O)c2ccc3nnnn3n2)cc1C#N [Compound 128]
0.05 to 0.5 | 0.01 to 0.1 | O=C(Nc1cc(OCCc2cc(NC(=O)c3ccc(-n4ccnc4)nn3)c(C(=O)O)cc2Cl)c(F)cc1C(=O)O)c1ccc(-n2ccnc2)nn1 [Compound 129]
0.05 to 0.5 | 0.01 to 0.1 | O=C(Nc1cc(CCCc2cc(NC(=O)c3ccc(-n4ccnc4)nn3)c(C(=O)O)cc2F)c(F)cc1C(=O)O)c1cccnn1 [Compound 111]

EC50 [1] [µM] | IC50 [2] [µM] | Compound
0.5 to 5 | 0.1 to 1 | O=C(Nc1cc(OCCc2cc(NC(=O)c3ccc4nnnn4n3)c(C(=O)O)cc2F)ccc1C(=O)O)c1ccc(-n2ccnc2)nn1 [Compound 97]
0.5 to 5 | 0.1 to 1 | COc1cc(C(=O)O)c(NC(=O)c2ccc(-n3ccnc3)nn2)cc1OCCCCOc1cc(NC(=O)c2ccc(-n3ccnc3)nn2)c(C(=O)O)cc1F [Compound 58]
> 5 | 0.01 to 0.1 | O=C(Nc1cc(CS(=O)(=O)Cc2cc(NC(=O)c3ccc(-n4ccnc4)nn3)c(C(=O)O)cc2F)c(F)cc1C(=O)O)c1ccc(-n2ccnc2)nn1 [Compound 143]
0.05 to 0.5 | 0.01 to 0.1 | COc1cc(C(=O)O)c(NC(=O)c2ccc(-n3ccnc3)nn2)cc1CSCc1cc(NC(=O)c2ccc(-n3ccnc3)nn2)c(C(=O)O)cc1F [Compound 124]
0.05 to 0.5 | 0.01 to 0.1 | O=C(Nc1cc(CCOc2cc(NC(=O)c3ccc4nnnn4n3)c(C(=O)O)cc2F)c(Cl)cc1C(=O)O)c1ccc(-n2ccnc2)nn1 [Compound 196]
< 0.05 | 0.01 to 0.1 | O=C(Nc1cc(CCOc2cc(NC(=O)c3ccc4nnnn4n3)c(C(=O)O)cc2F)c(F)cc1C(=O)O)c1ccc(-n2ccnc2)nn1 [Compound 2, 2-(6-(1H-imidazol-1-yl)pyridazine-3-carboxamido)-4-(2-(4-carboxy-2-fluoro-5-(tetrazolo[1,5-b]pyridazine-6-carboxamido)phenoxy)ethyl)-5-fluorobenzoic acid]
> 5 | 0.01 to 0.1 | O=C(Nc1ccc(CCCc2cc(NC(=O)c3ccc(-n4ccnc4)nn3)c(C(=O)O)cc2F)cc1C(=O)O)c1ccc(-n2ccnc2)nn1 [Compound 71]
> 5 | 0.1 to 1 | O=C(Nc1cc(CCOc2cc(NC(=O)c3ccc4nnnn4n3)c(C(=O)O)cc2F)c(F)cc1C(=O)O)c1ccc2nnnn2n1 [Compound 160]
0.05 to 0.5 | 0.01 to 0.1 | O=C(Nc1cc(COCc2cc(NC(=O)c3ccc(-n4ccnc4)nn3)c(C(=O)O)cc2F)c(F)cc1C(=O)O)c1ccc(-n2ccnc2)nn1 [Compound 151]
0.5 to 5 | 0.01 to 0.1 | O=C(Nc1cc(CCCc2ccc(C(=O)O)c(NC(=O)c3ccc4nnnn4n3)c2)c(Cl)cc1C(=O)O)c1ccc(-n2ccnc2)nn1 [Compound 105]
0.05 to 0.5 | 0.01 to 0.1 | O=C(Nc1cc(CCOc2cc(NC(=O)c3ccc4nnnn4n3)c(C(=O)O)cc2F)ccc1C(=O)O)c1ccc(-n2ccnc2)nn1 [Compound 92]
0.5 to 5 | 0.01 to 0.1 | O=C(Nc1cc(CCCc2ccc(NC(=O)c3ccc(-n4ccnc4)nn3)c(C(=O)O)c2)ccc1C(=O)O)c1ccc(-n2ccnc2)nn1 [Compound 55]
0.05 to 0.5 | 0.01 to 0.1 | COc1cc(NC(=O)c2ccc3nnnn3n2)c(C(=O)O)cc1CCCc1cc(NC(=O)c2ccc(-n3ccnc3)nn2)c(C(=O)O)cc1F [Compound 96]
0.05 to 0.5 | 0.01 to 0.1 | O=C(Nc1cc(CCCc2ccc(C(=O)O)c(NC(=O)c3ccc(-n4ccnc4)nn3)c2)ccc1C(=O)O)c1ccc(-n2ccnc2)nn1 [Compound 48]
0.05 to 0.5 | 0.01 to 0.1 | O=C(Nc1cc(CCCCc2cc(NC(=O)c3ccc4nnnn4n3)c(C(=O)O)cc2F)c(F)cc1C(=O)O)c1ccc(-n2ccnc2)nn1 [Compound 98]
– | 0.1 to 1 | O=C(Nc1cc(OCCc2cc(NC(=O)c3ccc(-n4ccnc4)nn3)c(-c3nn[nH]n3)cc2F)c(F)cc1C(=O)O)c1ccc(-n2ccnc2)nn1 [Compound 179]
– | 0.1 to 1 | Cn1nccc1-c1ccc(C(=O)Nc2cc(CCOc3cc(NC(=O)c4ccc(-c5ccnn5C)nn4)c(C(=O)O)cc3F)c(F)cc2C(=O)O)nn1 [Compound 208]
– | 0.1 to 1 | CC(=O)Nc1cc(CCCc2cc(NC(=O)c3ccc(-n4ccnc4)nn3)c(C(=O)O)cc2F)ccc1C(=O)O [Compound 73]
– | 0.1 to 1 | O=C(Nc1cc(CCOc2cc(NC(=O)c3ccc(-n4ccnc4)nn3)c(P(=O)(O)O)cc2F)c(F)cc1C(=O)O)c1ccc(-n2ccnc2)nn1 [Compound 153]
– | 0.1 to 1 | O=C(Nc1cc(OCCc2cc(NC(=O)c3ccc(-n4ccnc4)nn3)c(C(=O)O)cc2F)c(F)cc1C(=O)O)c1ccc(-c2cn[nH]c2)nn1 [Compound 158]
– | 0.1 to 1 | CCOC(=O)CCC(=O)c1cc2cc(OCCc3cc(NC(=O)c4ccc5nnnn5n4)c(C(=O)O)cc3F)c(OC)cc2s1 [Compound 122]
– | > 1 | NC(=O)c1cc(F)c(CCOc2cc(NC(=O)c3ccc(-n4ccnc4)nn3)c(C(=O)O)cc2F)cc1NC(=O)c1ccc(-n2ccnc2)nn1 [Compound 186]
